# Measurements taken from US10519152B2, “Compounds and their use in treating cancer” (AstraZeneca AB, priority 2017, dated 2019).
# Molecular target: T1, recombinant human Estrogen Receptor alpha ligand binding domain, residues 307-554 (ER alpha-LBD (GST)) (Homo sapiens, UniProt P03372)
# T1 construct: made in house
# T1 sequence (P03372 307-554): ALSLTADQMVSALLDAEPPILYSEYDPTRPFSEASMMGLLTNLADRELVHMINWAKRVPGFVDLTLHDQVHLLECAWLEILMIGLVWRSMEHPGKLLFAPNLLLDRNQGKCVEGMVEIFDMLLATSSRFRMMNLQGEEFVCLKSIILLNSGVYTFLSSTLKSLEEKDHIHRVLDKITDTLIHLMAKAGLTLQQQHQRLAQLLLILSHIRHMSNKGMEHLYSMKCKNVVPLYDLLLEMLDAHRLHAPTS
# Assay: ERα binding assay (LanthaScreen TR-FRET competition)
# Conditions: TR-FRET competition with Fluormone ES2 tracer, 4 hours at room temperature; single experiment or average of two or more
row,SMILES,IC50 [nM]
1,"Cc1ncsc1-c1ccc(CNC(=O)[C@@H]2C[C@@H](O)CN2C(=O)[C@@H](NC(=O)COCCOCCOCCOCCOc2cc(F)c([C@@H]3c4[nH]c5ccccc5c4C[C@@H](C)N3CC(C)(C)F)c(F)c2)C(C)(C)C)cc1 [Example 37, (2S,4R)-1-((S)-2-(tert-Butyl)-17-(3,5-difluoro-4-((1R,3R)-2-(2-fluoro-2-methylpropyl)-3-methyl-2,3,4,9-tetrahydro-1H-pyrido[3,4-b]indol-1-yl)phenoxy)-4-oxo-6,9,12,15-tetraoxa-3-azaheptadecanoyl)-4-hydroxy-N-(4-(4-methylthiazol-5-yl)benzyl)pyrrolidine-2-carboxamide]",6.4
2,"Cc1ncsc1-c1ccc(CNC(=O)C2CC(O)CN2C(=O)C(NC(=O)COCCOc2cc(F)c(C3c4[nH]c5ccccc5c4CC(C)N3CC(C)(C)F)c(F)c2)C(C)(C)C)cc1 [Example 40, (2S,4R)-1-((S)-2-(2-(2-(3,5-Difluoro-4-((1R,3R)-2-(2-fluoro-2-methylpropyl)-3-methyl-2,3,49-tetrahydro-1H-pyrido[3,4-b]indol-1-yl)phenoxy)ethoxy)acetamido)-3,3-dimethylbutanoyl)-4-hydroxy-N-(4-(4-methylthiazol-5-yl)benzyl)pyrrolidine-2-carboxamide]",1.3
3,"Cc1ncsc1-c1ccc(CNC(=O)[C@@H]2C[C@@H](O)CN2C(=O)[C@@H](NC(=O)COCCCCCN(CCOc2cc(F)c([C@@H]3c4[nH]c5ccccc5c4C[C@@H](C)N3CC(C)(C)F)c(F)c2)C(=O)OCc2ccccc2)C(C)(C)C)cc1 [Example 45, Benzyl (2-(3,5-difluoro-4-((1R,3R)-2-(2-fluoro-2-methylpropyl)-3-methyl-2,3,4,9-tetrahydro-1H-pyrido[3,4-b]indol-1-yl)phenoxy)ethyl)(5-(2-(((S)-1-((2S,4R)-4-hydroxy-2-((4-(4-methylthiazol-5-yl)benzyl)carbamoyl)pyrrolidin-1-yl)-3,3-dimethyl-1-oxobutan-2-yl)amino)-2-oxoethoxy)pentyl)carbamate]",1.2
4,"Cc1ncsc1-c1ccc(CNC(=O)[C@@H]2C[C@@H](O)CN2C(=O)[C@@H](NC(=O)COCCCC2CN(CCOc3cc(F)c([C@@H]4c5[nH]c6ccccc6c5C[C@@H](C)N4CC(C)(C)F)c(F)c3)C2)C(C)(C)C)cc1 [Example 47, (2S,4R)-1-((S)-2-(2-(3-(1-(2-(3,5-difluoro-4-((1R,3R)-2-(2-fluoro-2-methylpropyl)-3-methyl-2,3,4,9-tetrahydro-1H-pyrido[3,4-b]indol-1-yl)phenoxy)ethyl)azetidin-3-yl)propoxy)acetamido)-3,3-dimethylbutanoyl)-4-hydroxy-N-(4-(4-methylthiazol-5-yl)benzyl)pyrrolidine-2-carboxamide]",0.7
5,"Cc1ncsc1-c1ccc(CNC(=O)[C@@H]2C[C@@H](O)CN2C(=O)[C@@H](NC(=O)COCCCCCNCCOc2cc(F)c([C@@H]3c4[nH]c5ccccc5c4C[C@@H](C)N3CC(C)(C)F)c(F)c2)C(C)(C)C)cc1 [Example 48, (2S,4R)-1-((S)-2-(2-((5-((2-(3,5-difluoro-4-((1R,3R)-2-(2-fluoro-2-methylpropyl)-3-methyl-2,3,4,9-tetrahydro-1H-pyrido[3,4-b]indol-1-yl)phenoxy)ethyl)amino)pentyl)oxy)acetamido)-3,3-dimethylbutanoyl)-4-hydroxy-N-(4-(4-methylthiazol-5-yl)benzyl)pyrrolidine-2-carboxamide]",1
6,"Cc1ncsc1-c1ccc(CNC(=O)[C@@H]2C[C@@H](O)CN2C(=O)[C@@H](NC(=O)COCCCCCN(C)CCOc2cc(F)c([C@@H]3c4[nH]c5ccccc5c4C[C@@H](C)N3CC(C)(C)F)c(F)c2)C(C)(C)C)cc1 [Example 49, (2S,4R)-1-((S)-2-(2-((5-((2-(3,5-difluoro-4-((1R,3R)-2-(2-fluoro-2-methylpropyl)-3-methyl-2,3,4,9-tetrahydro-1H-pyrido[3,4-b]indol-1-yl)phenoxy)ethyl)(methyl)amino)pentyl)oxy)acetamido)-3,3-dimethylbutanoyl)-4-hydroxy-N-(4-(4-methylthiazol-5-yl)benzyl)pyrrolidine-2-carboxamide]",1
7,"Cc1ncsc1-c1ccc(CNC(=O)[C@@H]2C[C@@H](O)CN2C(=O)[C@@H](NC(=O)COCCCCCCOc2cc(F)c([C@@H]3c4[nH]c5ccccc5c4C[C@@H](C)N3CC(C)(C)F)c(F)c2)C(C)(C)C)cc1 [Example 51, (2S,4R)-1-((S)-2-(2-((6-(3,5-difluoro-4-((1R,3R)-2-(2-fluoro-2-methylpropyl)-3-methyl-2,3,4,9-tetrahydro-1H-pyrido[3,4-b]indol-1-yl)phenoxy)hexyl)oxy)acetamido)-3,3-dimethylbutanoyl)-4-hydroxy-N-(4-(4-methylthiazol-5-yl)benzyl)pyrrolidine-2-carboxamide]",2
8,"Cc1ncsc1-c1ccc(CNC(=O)[C@@H]2C[C@@H](O)CN2C(=O)[C@@H](NC(=O)COCCc2ccc(COc3cc(F)c([C@@H]4c5[nH]c6ccccc6c5C[C@@H](C)N4CC(C)(C)F)c(F)c3)cc2)C(C)(C)C)cc1 [Example 53, (2S,4R)-1-((S)-2-(2-(4-((3,5-difluoro-4-((1R,3R)-2-(2-fluoro-2-methylpropyl)-3-methyl-2,3,4,9-tetrahydro-1H-pyrido[3,4-b]indol-1-yl)phenoxy)methyl)phenethoxy)acetamido)-3,3-dimethylbutanoyl)-4-hydroxy-N-(4-(4-methylthiazol-5-yl)benzyl)pyrrolidine-2-carboxamide]",1
9,"Cc1ncsc1-c1ccc(CNC(=O)[C@@H]2C[C@@H](O)CN2C(=O)[C@@H](NC(=O)COCCOCCOCCOCCOCCOCC(=O)Nc2ccc([C@@H]3c4[nH]c5ccccc5c4C[C@@H](C)N3CC(C)(C)F)cc2)C(C)(C)C)cc1 [Example 54, N^1-(4-((1R,3R)-2-(2-fluoro-2-methylpropyl)-3-methyl-2,3,4,9-tetrahydro-1H-pyrido[3,4-b]indol-1-yl)phenyl)-N^18—((S)-1-((2S,4R)-4-hydroxy-2-(4-(4-methylthiazol-5-yl)benzylcarbamoyl)pyrrolidin-1-yl)-3,3-dimethyl-1-oxobutan-2-yl)-2,5,8,11,14,17-hexaoxaoctadecane-1,18-dicarboxamide, Trifluoroacetic Acid]",16
10,"Cc1ncsc1-c1ccc(CNC(=O)[C@@H]2C[C@@H](O)CN2C(=O)[C@@H](NC(=O)COCCOCCOCCOc2cc(F)c([C@@H]3c4[nH]c5ccccc5c4C[C@@H](C)N3C[C@H](C)CO)c(F)c2)C(C)(C)C)cc1 [Example 101, (2S,4R)-1-((S)-2-(tert-butyl)-14-(3,5-difluoro-4-((1R,3R)-2-((S)-3-hydroxy-2-methylpropyl)-3-methyl-2,3,4,9-tetrahydro-1H-pyrido[3,4-b]indol-1-yl)phenoxy)-4-oxo-6,9,12-trioxa-3-azatetradecanoyl)-4-hydroxy-N-(4-(4-methylthiazol-5-yl)benzyl)pyrrolidine-2-carboxamide]",3.3
11,"Cc1ncsc1-c1ccc([C@@H](CN)NC(=O)[C@@H]2C[C@@H](O)CN2C(=O)[C@@H](NC(=O)COCCOCCOCCOc2cc(F)c([C@@H]3c4[nH]c5ccccc5c4C[C@@H](C)N3CC(C)(C)F)c(F)c2)C(C)(C)C)cc1 [Example 106, (2S,4R)—N-[(1S)-2-amino-1-[4-(4-methylthiazol-5-yl)phenyl]ethyl]-1-[(2S)-2-[[2-[2-[2-[2-[3,5-difluoro-4-[(1R,3R)-2-(2-fluoro-2-methyl-propyl)-3-methyl-1,3,4,9-tetrahydropyrido[3,4-b]indol-1-yl]phenoxy]ethoxy]ethoxy]ethoxy]acetyl]amino]-3,3-dimethyl-butanoyl]-4-hydroxy-pyrrolidine-2-carboxamide]",0.8
12,"Cc1ncsc1-c1ccc([C@@H](CN(C)C)NC(=O)[C@@H]2C[C@@H](O)CN2C(=O)[C@@H](NC(=O)COCCOCCOCCOc2cc(F)c([C@@H]3c4[nH]c5ccccc5c4C[C@@H](C)N3CC(C)(C)F)c(F)c2)C(C)(C)C)cc1 [Example 107, (2S,4R)-1-[(2S)-2-[[2-[2-[2-[2-[3,5-Difluoro-4-[(1R,3R)-2-(2-fluoro-2-methyl-propyl)-3-methyl-1,3,4,9-tetrahydropyrido[3,4-b]indol-1-yl]phenoxy]ethoxy]ethoxy]ethoxy]acetyl]amino]-3,3-dimethyl-butanoyl]-N-[(1S)-2-(dimethylamino)-1-[4-(4-methylthiazol-5-yl)phenyl]ethyl]-4-hydroxy-pyrrolidine-2-carboxamide]",4
13,"Cc1ncsc1-c1ccc(CNC(=O)[C@@H]2C[C@@H](O)CN2C(=O)[C@@H](NC(=O)CCCCCOCCCCOc2cc(F)c([C@@H]3c4[nH]c5ccccc5c4C[C@@H](C)N3CC(C)(C)F)c(F)c2)C(C)(C)C)cc1 [Example 109, (2S,4R)-1-((S)-2-(6-(4-(3,5-difluoro-4-((1R,3R)-2-(2-fluoro-2-methylpropyl)-3-methyl-2,3,49-tetrahydro-1H-pyrido[3,4-b]indol-1-yl)phenoxy)butoxy)hexanamido)-3,3-dimethylbutanoyl)-4-hydroxy-N-(4-(4-methylthiazol-5-yl)benzyl)pyrrolidine-2-carboxamide]",0.6
14,"Cc1ncsc1-c1ccc(CNC(=O)[C@@H]2C[C@@H](O)CN2C(=O)[C@@H](NC(=O)CCCCCCOCCCOc2cc(F)c([C@@H]3c4[nH]c5ccccc5c4C[C@@H](C)N3CC(C)(C)F)c(F)c2)C(C)(C)C)cc1 [Example 110, (2S,4R)-1-((S)-2-(7-(3-(3,5-difluoro-4-((1R,3R)-2-(2-fluoro-2-methylpropyl)-3-methyl-2,3,4,9-tetrahydro-1H-pyrido[3,4-b]indol-1-yl)phenoxy)propoxy)heptanamido)-3,3-dimethylbutanoyl)-4-hydroxy-N-(4-(4-methylthiazol-5-yl)benzyl)pyrrolidine-2-carboxamide]",0.7
